Results taken from patent publication US9040249B2, “Pan-kinase activation and evaluation of signaling pathways” (Beckman Coulter, Inc., priority 2008, dated 2015).
Where “and” joins values, the source holds several entries; their conditions need not be identical. Identical values can stand only once. Entries after “also recorded” stand apart in the source; their conditions may differ.

Columns and labels:
ribosomal S6 protein [1] = test: Inhibition of S6 activation by LPS with ERK and PI3K inhibitors; type: cell-based, human
Description: (§1) 100 μl of blood was inserted into the bottom of 12×75 mm tubes. Blood was removed from the side of tube with cotton swab to eliminate potential contamination of the sample with unfixed cells. 100 ng lipopolysaccharide (LPS) was added to activation tubes (or equal volume of phosphate buffered saline (PBS) to control tubes) and the tubes were placed in 37° C. water bath.
(§2) After various incubation times (e.g. 1 minute to 60 minutes), the first tube was removed from the incubator and 65 μl 10% formaldehyde was added into tube. The tubes were mixed and placed in a rack and incubated at room temperature. After exactly a 10 minute incubation with formaldehyde, 1 ml Lyse/Permeabilization Buffer ([…] TRITON X-100 10% stock solution to 500 ml with PBS. 0.1165% TRITON X-100 solution at room temperature in the dark and pre-heated to 37° C. immediately prior to use.) was added to each tube, vortexed vigorously and returned to the rack. The tubes were incubated at room temperature for 15 minutes.
2 ml cold Wash Buffer (PBS (w/o Ca++/Mg++) with 4% FBS, sterile filtered (0.22 um filter)) (4° C.) was added to each tube. All tubes were centrifuged at 500×g for 4 minutes. […]
Antibodies and cold Wash Buffer were added to a final volume of 100 μl and incubated at room temperature for 30 minutes. […] Cells were resuspended in 1 ml Wash Buffer, vortexed and analyzed on the flow cytometer. […]

p38 MAP Kinase = test: LPS activation of MAPK signaling in whole blood monocytes, flow cytometry (P-p38); type: cell-based, human
Description: as §1, §2
(§3) 2 ml cold Wash Buffer (PBS (w/o Ca++/Mg++) with 4% FBS, sterile filtered (0.22 um filter)) (4° C.) was added to each tube. All tubes were centrifuged at 500×g for 4 minutes. Tubes were removed from the centrifuge and supernate fluid was aspirated. 1 ml of cold (4° C.) 50% methanol was added to each tube and vortexed. All tubes were then incubated on ice for 10 minutes.
(§4) The tubes were then centrifuged at 500×g for 4 minutes and the supernate fluid was aspirated. 2 ml cold Wash Buffer (4° C.) was added to each tube. All tubes were centrifuged at 500×g for 4 minutes. Tubes were removed from the centrifuge and supernate fluid was aspirated.
(§5) Antibodies and cold Wash Buffer were added to a final volume of 100 μl and incubated at room temperature for 30 minutes. 2 ml cold Wash buffer was added, mixed and centrifuged. Cells were resuspended in 1 ml Wash Buffer, vortexed and analyzed on the flow cytometer.
(§6) In this study, a simultaneous measurement of four different signaling phospho-epitopes, which include P-ERK, P-p38 MAP Kinase, P-SAPK (Stress-Activated Protein Kinase), and P-S6 ribosomal protein (a measurement of new polypeptide synthesis), was conducted. This assay employed a measurement of the time course of LPS activation, in both “naive” whole blood, and whole blood samples previously exposed to LPS activation (“re-activated”). This assay also employed the fixation and permeabilization approach described above to measure both cell surface (CD14 to identify monocytes) and cytoplasmic or nuclear localized phospho-epitopes (P-ERK, P-p38, P-SAPK, and P-S6). This assay also employed an internal negative control to analyzing the data, relying on populations, rather than isotype controls, and measuring changes in MFI (mean fluorescence intensity) rather than percent positive.

ERK [2] = settings: cited from earlier work
SAPK/JNK = test: LPS activation of MAPK signaling in whole blood monocytes, flow cytometry (P-SAPK/JNK); type: cell-based, human
Description: as §1, §2, §3, §4, §5, §6

ribosomal S6 protein [3] = test: LPS activation of ribosomal S6 protein in whole blood monocytes, flow cytometry (P-S6); type: cell-based, human
Description: as §1, §2, §3, §4, §5, §6

ERK [4] = test: LPS activation of MAPK signaling in whole blood monocytes, flow cytometry (P-ERK); type: cell-based, human
Description: as §1, §2, §3, §4, §5, §6

[5] = normal whole blood, LPS 10 minutes at 37° C.
[6] = previously LPS-stimulated, 0 time of re-exposure
[7] = re-stimulation after 60 minutes, up to 2 hours
[8] = up to 120 minutes post stimulation
[9] = normal samples not previously exposed to LPS

N#CC(=C(/N)Sc1ccccc1N)/C(C#N)=C(\N)Sc1ccccc1N [U0126]
inhibition of S6 activation by LPS (ribosomal S6 protein [1]; ERK inhibitor U0126 and PI3K inhibitor Ly294002 both present): inhibition of phosphorylation was seen; also recorded: Complete inhibition
inhibition of S6 activation by LPS (ribosomal S6 protein [1]; inhibitor alone): Only inhibition of both pathways leads to complete inhibition

lipopolysaccharide [LPS]
percentage of P-p38 positive monocytes (p38 MAP Kinase; 15 min after LPS re-exposure): 46%
aggregate MFI of P-p38 (p38 MAP Kinase; 15 minutes after re-exposure to LPS): 5.5
p38 pathway activity after 60 minutes of LPS activation (p38 MAP Kinase; 60 minutes): decreased, but do not return to baseline
monocytes retaining the same P-p38 MFI as in the 15 min primary response (p38 MAP Kinase; 120 min after primary LPS stimulation): Roughly 50%
monocyte population showing significant increase in P-p38 MFI (p38 MAP Kinase; after primary LPS stimulation): about 100%
levels of P-p38 after primary LPS stimulation (p38 MAP Kinase; even after periods of 120 min): do not return to basal levels
activated p38 in CD14+ monocytes (p38 MAP Kinase; [5]): all CD14+ monocytes have activated p-38, JNK, and ERK
aggregate MFI of P-p38 (p38 MAP Kinase; [6]): 5.0
percentage of P-p38 positive monocytes (p38 MAP Kinase; [6]): 40%
time to maximal P-p38 MFI after LPS stimulation (p38 MAP Kinase; primary LPS stimulation): 15 min
P-p38 MFI peak time after restimulation with LPS (p38 MAP Kinase; re-stimulation): 15 to 20 min
p38 activity when additional LPS is added (p38 MAP Kinase; [7]): no additional increase in any MAPK activity
percent of monocytes expressing phospho-ERK after LPS treatment in vitro (ERK [2]; normal controls, 15 min after LPS addition, 35% without LPS): 58%
increase in P-ERK monocytes following LPS addition in vitro (ERK [2]; presumably septic patients, 25% before LPS): less than 10%
JNK pathway activity after 60 minutes of LPS activation (SAPK/JNK; 60 minutes): decreased, but do not return to baseline
time of P-SAPK peak after initial LPS stimulation (SAPK/JNK; initial stimulation): 15 min
activated JNK in CD14+ monocytes (SAPK/JNK; [5]): all CD14+ monocytes have activated p-38, JNK, and ERK
JNK activity when additional LPS is added (SAPK/JNK; [7]): no additional increase in any MAPK activity
P-SAPK levels after initial LPS stimulation (SAPK/JNK; [8]): do not return to basal levels
P-SAPK positive monocytes (SAPK/JNK; [8]): 30-40%
peak activation of S6 relative to other pathway proteins (ribosomal S6 protein [3]; LPS stimulated monocytes): later than other MAPK pathway proteins
time of P-S6 peak after LPS stimulation (ribosomal S6 protein [3]; normal individuals, primary stimulation): 15 to 30 min and 15 to 60 min
persistence of P-S6 levels following LPS stimulation (ribosomal S6 protein [3]; primary stimulation): > 120 min
MFI of the P-S6 population following LPS re-stimulation (ribosomal S6 protein [3]; re-stimulation): little change in the MFI
ERK pathway activity after 60 minutes of LPS activation (ERK [4]; 60 minutes): decreased, but do not return to baseline
early P-ERK peak, time after LPS addition (ERK [4]; [9]): 1 to 4 min
second P-ERK peak, time after LPS stimulation (ERK [4]; [9]): 10 to 15 min
activated ERK in CD14+ monocytes (ERK [4]; [5]): all CD14+ monocytes have activated p-38, JNK, and ERK
ERK activity when additional LPS is added (ERK [4]; [7]): no additional increase in any MAPK activity
ERK activation six minutes after LPS activation (ERK [4]; six minutes, 37° C.): initial ERK activation declines
MFI of P-ERK upon re-exposure to LPS (ERK [4]; up to 90 minutes after LPS re-stimulation, versus 0 time control): does not change significantly above the 0 time control
earliest ERK activation, time following LPS stimulation (ERK [4]; whole blood monocytes, 37° C., before JNK or p38 activation): 2 min
